# How the values were obtained:
# [1] = test system: patients with negative symptoms of schizophrenia; assay: Study #2 (MIN-101C07): Personal and Social Performance (PSP); assay type: in vivo, human; parameters: key to PSP total score, LS mean difference vs placebo in change from Baseline / Mean change in PSP Total score from Active Baseline / Change from Baseline LS Mean: PSP Total Score (ITT) / Change from Baseline LS Mean: PSP Total Score (mITT): PSP Total score points (1–100 scale, higher = better functioning); conditions: for Change from Baseline LS Mean: PSP Total Score (ITT) / Change from Baseline LS Mean: PSP domain Disturbing and Aggressive Behaviors / Change from Baseline LS Mean: PSP domain Personal and Social Relationships / Change from Baseline LS Mean: PSP domain Self-Care / Change from Baseline LS Mean: PSP domain Socially Useful Activities / Effect Size (Cohen's d) vs Placebo: PSP Total Score (ITT) / Effect Size (Cohen's d) vs Placebo: PSP domain Disturbing and Aggressive Behaviors / Effect Size (Cohen's d) vs Placebo: PSP domain Personal and Social Relationships / Effect Size (Cohen's d) vs Placebo: PSP domain Self-Care / Effect Size (Cohen's d) vs Placebo: PSP domain Socially Useful Activities: ITT; for Mean change in PSP Total score from Active Baseline: Week 52, OL
# Source text: The PSP is a validated clinician-rated scale intended to reflect real-life situations that measures personal and social functioning in 4 domains: (a) socially useful activities, (b) personal and social relationships, (c) self-care, and (d) disturbing and aggressive behaviors. The score is based on the assessment of a patient's performance in the 4 domains. The PSP Total score is a single measurement of functioning ranging from 1 to 100, where a higher score represents better functioning. A score of 91 to 100 indicates excellent functioning in all 4 main areas; the patient is held in high consideration for their good qualities, copes adequately with life problems, and is involved in a wide range of interests and activities. A score of 1 to 10 indicates a lack of autonomy in basic functioning with extreme behaviors but without survival risk (score 6 to 10) or with survival risk (score 1 to 5). […] Review of the relevant scientific literature and the analysis of the psychometric properties of the 4 domains that result in the generation of the PSP Total score were supportive of the appropriateness and cross-cultural applicability of the use of the PSP in drug development for the indication of negative symptoms of schizophrenia The PSP was assessed at the timepoints described in Table 6. The changes from Baseline in the PSP Total score and individual domain scores after 12 weeks of treatment were exploratory efficacy endpoints in Study MIN-101C03, and the Total score was the key secondary efficacy endpoint and the PSP domain scores were exploratory endpoints in Study MIN-101C07.
# (§1) Study #2 (also referred to as “MIN101C07”) was a Phase 3, randomized, DB, placebo-controlled, parallel-group 12-week study to evaluate the efficacy and safety of Roluperidone in patients ≥18 years to ≤55 years with negative symptoms of schizophrenia, followed by a 40-week OL extension. The study consisted of a pretreatment screening period of up to 28 days (including an antipsychotic medication washout period), a 12-week, DB, placebo-controlled period, and a 40-week OL period. Eligible patients (with moderate to severe negative symptoms of schizophrenia and stable positive symptoms but without severe symptoms of suspiciousness, agitation, hostility, uncooperativeness, or poor impulse control) were randomized 1:1:1 to receive Roluperidone 32 mg QD, Roluperidone 64 mg QD (GR01/B formulation, see U.S. Pat. No. 11,464,744), or placebo, orally, for 12 weeks. […] During the 40-week OL treatment extension, patients who were initially randomized to Roluperidone 32 mg or 64 mg continued treatment with the same dose, while patients who were initially randomized to placebo crossed over to Roluperidone 32 mg or 64 mg in a 1:1 ratio.
# [2] = test system: patients with negative symptoms of schizophrenia; assay: Study #2 (MIN-101C07): safety and tolerability (TEAEs, QT); assay type: in vivo, human; conditions: for Incidence of TEAEs: DB period
# Source text: as §1
# The incidence of TEAEs was slightly higher in the Roluperidone groups than in the placebo group during the DB period (42% in the 32 mg Roluperidone group, 37% in the 64 mg Roluperidone group, and 33% in the placebo group). The majority of TEAEs reported were in the System Organ Class (SOC) psychiatric disorders. The most commonly reported TEAEs were insomnia, schizophrenia, anxiety, agitation, and headache. […] In total, 6 patients met stopping criteria due to QT prolongations, and 4 of these 6 patients were discontinued from the study due to such prolongations. The remaining 2 patients were discontinued for other reasons prior to confirming their QT prolongations.
substance,measurement,setting,value
"1H-Isoindol-1-one,2-[ [1-[2-(4-fluorophenyl)-2-oxoethyl]-4-piperidinyl]methyl]-2,3-dihydro-, hydrochloride, hydrate (1:1:2) [Roluperidone]",Effect Size (Cohen's w) vs Placebo: 7-Point improvement in PSP Total Score responders,"[1]; 32 mg QD, Week 12 DB",0.03
same,Effect Size (Cohen's w) vs Placebo: 10-Point improvement in PSP Total Score responders,"[1]; 32 mg QD, Week 12 DB",0.01
same,Number of Patients with 7-Point improvement in PSP Total Score at Week 12,"[1]; 32 mg QD, Week 12 DB",37/116
same,Number of Patients with 10-Point improvement in PSP Total Score at Week 12,"[1]; 32 mg QD, Week 12 DB",26/116
same,Patients with 7-Point improvement in PSP Total Score at Week 12 (%),"[1]; 32 mg QD, Week 12 DB",(32%)
same,Patients with 10-Point improvement in PSP Total Score at Week 12 (%),"[1]; 32 mg QD, Week 12 DB",(22%)
same,Change from Baseline LS Mean: PSP Total Score (ITT),"[1]; 32 mg QD, Week 12 DB",4.5
same,Change from Baseline LS Mean: PSP domain Disturbing and Aggressive Behaviors,"[1]; 32 mg QD, Week 12 DB",0.0
same,Change from Baseline LS Mean: PSP domain Personal and Social Relationships,"[1]; 32 mg QD, Week 12 DB",−0.4
same,Change from Baseline LS Mean: PSP domain Self-Care,"[1]; 32 mg QD, Week 12 DB",−0.4
same,Change from Baseline LS Mean: PSP domain Socially Useful Activities,"[1]; 32 mg QD, Week 12 DB",−0.3
same,Effect Size (Cohen's d) vs Placebo: PSP Total Score (ITT),"[1]; 32 mg QD, Week 12 DB",0.07
same,Effect Size (Cohen's d) vs Placebo: PSP domain Disturbing and Aggressive Behaviors,"[1]; 32 mg QD, Week 12 DB",0.00
same,Effect Size (Cohen's d) vs Placebo: PSP domain Personal and Social Relationships,"[1]; 32 mg QD, Week 12 DB",0.15
same,Effect Size (Cohen's d) vs Placebo: PSP domain Self-Care,"[1]; 32 mg QD, Week 12 DB",0.15
same,Effect Size (Cohen's d) vs Placebo: PSP domain Socially Useful Activities,"[1]; 32 mg QD, Week 12 DB",0.02
same,Change from Baseline LS Mean: PSP Total Score (mITT),"[1]; 32 mg QD, Week 12 DB",4.4
same,Effect Size (Cohen's d) vs Placebo: PSP Total Score (mITT),"[1]; 32 mg QD, Week 12 DB",0.07
same,Effect Size (Cohen's w) vs Placebo: 7-Point improvement in PSP Total Score responders,"[1]; 64 mg QD, Week 12 DB",0.13
same,Effect Size (Cohen's w) vs Placebo: 10-Point improvement in PSP Total Score responders,"[1]; 64 mg QD, Week 12 DB",0.10
same,Number of Patients with 7-Point improvement in PSP Total Score at Week 12,"[1]; 64 mg QD, Week 12 DB",50/122
same,Number of Patients with 10-Point improvement in PSP Total Score at Week 12,"[1]; 64 mg QD, Week 12 DB",37/122
same,Change from Baseline LS Mean: PSP Total Score (ITT),"[1]; 64 mg QD, Week 12 DB",6.1
same,Change from Baseline LS Mean: PSP domain Disturbing and Aggressive Behaviors,"[1]; 64 mg QD, Week 12 DB",0.0
same,Change from Baseline LS Mean: PSP domain Personal and Social Relationships,"[1]; 64 mg QD, Week 12 DB",−0.3
same,Change from Baseline LS Mean: PSP domain Self-Care,"[1]; 64 mg QD, Week 12 DB",−0.3
same,Change from Baseline LS Mean: PSP domain Socially Useful Activities,"[1]; 64 mg QD, Week 12 DB",−0.4
same,Effect Size (Cohen's d) vs Placebo: PSP Total Score (ITT),"[1]; 64 mg QD, Week 12 DB",0.27
same,Effect Size (Cohen's d) vs Placebo: PSP domain Disturbing and Aggressive Behaviors,"[1]; 64 mg QD, Week 12 DB",−0.07
same,Effect Size (Cohen's d) vs Placebo: PSP domain Personal and Social Relationships,"[1]; 64 mg QD, Week 12 DB",0.00
same,Effect Size (Cohen's d) vs Placebo: PSP domain Self-Care,"[1]; 64 mg QD, Week 12 DB",0.04
same,Effect Size (Cohen's d) vs Placebo: PSP domain Socially Useful Activities,"[1]; 64 mg QD, Week 12 DB",0.18
same,Change from Baseline LS Mean: PSP Total Score (mITT),"[1]; 64 mg QD, Week 12 DB",6.2
same,Effect Size (Cohen's d) vs Placebo: PSP Total Score (mITT),"[1]; 64 mg QD, Week 12 DB",0.29
same,"PSP total score, LS mean difference vs placebo in change from Baseline","[1]; 64 mg, Week 12, ITT",2.2
same,"PSP Total score, course in OL period",[1]; OL period,continued improvement was seen
same,Mean change in PSP Total score from Active Baseline,[1]; placebo to 32 mg group,11.7
same,Mean change in PSP Total score from Active Baseline,[1]; placebo to 64 mg group,11.8
same,"Change in safety laboratory parameters, including prolactin",[2],no significant change
same,"Change in vital signs, including weight and waist circumference",[2],no significant change
same,Incidence of TEAEs,[2]; 32 mg,42%
same,Incidence of TEAEs,[2]; 64 mg,37%
same,Tolerability,[2]; 32 and 64 mg,generally well tolerated
same,Patients who met stopping criteria due to QT prolongations,[2]; in total,6 patients
same,QT prolongation,[2]; majority of clinically significant prolongations with 64 mg,Dose-related QT prolongation was observed
same,Patients discontinued from the study due to QT prolongations,[2]; of the 6 meeting stopping criteria,4 patients

# Reference: patent publication US20230255953A1, “USE OF ROLUPERIDONE IN PREVENTING RELAPSE IN SCHIZOPHRENIA PATIENTS” (Minerva Neurosciences, Inc., priority 2022, published 2023)
